# ChEMBL document CHEMBL4665751, “Discovery of Clinical Candidate (5-(3-(4-Chlorophenoxy)prop-1-yn-1-yl)-3-hydroxypicolinoyl)glycine, an Orally Bioavailable Prolyl Hydroxylase Inhibitor for the Treatment of Anemia” (J Med Chem, 2020)
# pIC50: −log10 of the molar value.
# Key:
# Homo sapiens [1] = species on record: Homo sapiens; experiment: Selectivity index, ratio of IC50 for PHD3 (unknown origin) to IC50 for PHD2 (unknown origin) by O-phenyl enediamine(OPD) based fluorescence assay
# Cytochrome P450 3A4 = Cytochrome P450 3A4 (Homo sapiens, UniProt P08684); experiment: Inhibition of CYP3A4 (unknown origin) using testosterone as substrate preincubated for 5 mins followed by addition of NADPH measured after 20 mins by LC-MS/MS analysis; type: ADME
# Cytochrome P450 3A4, sequence (P08684 whole entry): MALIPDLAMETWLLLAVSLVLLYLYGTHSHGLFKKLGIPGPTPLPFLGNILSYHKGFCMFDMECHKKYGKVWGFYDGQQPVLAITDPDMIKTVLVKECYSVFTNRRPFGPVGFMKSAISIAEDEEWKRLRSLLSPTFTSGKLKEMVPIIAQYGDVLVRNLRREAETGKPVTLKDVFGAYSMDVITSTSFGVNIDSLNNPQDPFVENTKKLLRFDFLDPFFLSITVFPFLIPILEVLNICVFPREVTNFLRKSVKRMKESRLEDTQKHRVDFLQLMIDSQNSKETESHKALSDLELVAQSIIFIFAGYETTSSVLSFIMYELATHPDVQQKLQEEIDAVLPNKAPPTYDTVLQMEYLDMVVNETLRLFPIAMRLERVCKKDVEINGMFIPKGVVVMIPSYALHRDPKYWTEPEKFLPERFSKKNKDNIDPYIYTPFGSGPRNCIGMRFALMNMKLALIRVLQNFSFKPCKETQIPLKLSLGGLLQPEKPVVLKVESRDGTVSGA
# [2] = Half-life in Beagle dog at 0.5 mg/kg, iv by LC-MS/MS analysis; type: ADME, organism-based, Canis lupus familiaris; details: in vivo
# [3] = Oral bioavailability in Beagle dog at 2 mg/kg by LC-MS/MS analysis; type: ADME, organism-based, Canis lupus familiaris; details: in vivo
# [4] = Acute toxicity in male Sprague-Dawley rat assessed as increase in weight of spleen to body weight at 15 to 200 mg/kg, po administered every alternate days for 2 weeks measured on day 14; type: organism-based; details: in vivo, 336 h, dose 15-200 mg/kg, time 14 day
# [5] = MRT (0 to infinity) in Sprague-Dawley rat at 1 mg/kg, iv by LC-MS/MS analysis; type: ADME, organism-based; details: in vivo
# [6] = Cmax in Sprague-Dawley rat at 2 mg/kg, ig by LC-MS/MS analysis; type: ADME, organism-based; parameters: route […], dose 2 mg/kg; details: in vivo, po
# [7] = Hepatotoxicity in male Sprague-Dawley rat assessed as change in albumin/globulin ratio at 15 to 200 mg/kg, po administered every alternate days for 2 weeks measured on day 14; type: toxicity, organism-based; details: in vivo, 336 h, dose 15-200 mg/kg, time 14 day
# [8] = Acute toxicity in Sprague-Dawley rat assessed as change in ratio of kidney to body weight at 15 to 200 mg/kg, po administered every alternate days for 2 weeks measured on day 14; type: organism-based; details: in vivo, 336 h, dose 15-200 mg/kg, time 14 day
# Egl nine homolog 1 = Egl nine homolog 1 (Homo sapiens, UniProt Q9GZT9); experiment: Inhibition of PHD2 in human Hep3B cells assessed as upregulation of EPO mRNA expression at 50 uM measured after 10 hrs by Trizol reagent based qRT-PCR analysis relative to control; type: cell-based
# Egl nine homolog 1, sequence (Q9GZT9 2-426 limits assumed): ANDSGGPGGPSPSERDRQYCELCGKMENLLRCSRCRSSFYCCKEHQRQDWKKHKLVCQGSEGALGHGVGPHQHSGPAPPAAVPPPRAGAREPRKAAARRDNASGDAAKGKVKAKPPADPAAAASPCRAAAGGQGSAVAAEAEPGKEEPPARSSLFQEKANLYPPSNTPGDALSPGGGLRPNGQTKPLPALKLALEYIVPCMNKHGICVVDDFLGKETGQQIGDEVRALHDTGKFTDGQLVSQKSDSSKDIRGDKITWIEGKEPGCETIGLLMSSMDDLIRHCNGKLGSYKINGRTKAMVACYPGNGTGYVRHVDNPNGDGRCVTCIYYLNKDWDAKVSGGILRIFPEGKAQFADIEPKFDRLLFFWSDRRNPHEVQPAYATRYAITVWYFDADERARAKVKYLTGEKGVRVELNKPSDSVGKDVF
# [9] = Apparent volume of distribution in Beagle dog at 0.5 mg/kg, iv by LC-MS/MS analysis; type: ADME, organism-based, Canis lupus familiaris; details: in vivo, read-out: Vz
# [10] = Acute toxicity in Sprague-Dawley rat assessed as change in growth at 15 to 200 mg/kg, po administered every alternate days for 14 days; type: organism-based; details: in vivo, 336 h, dose 15-200 mg/kg, time 14 day
# [11] = Intrinsic clearance in human liver microsome at 1 uM preincubated for 5 mins followed by NADPH addition measured up to 120 mins by LC-MS/MS analysis; type: ADME; details: microsomes, 2 h, time <=125 min
# Hep 3B2 = experiment: Cytotoxicity against human Hep3B cells assessed as reduction in cell viability at 10 to 100 uM incubated for 72 hrs by MTT assay; type: cell-based; details: hep 3b2, 72 h, dose 10-100 µM
# [12] = Apparent volume of distribution in Sprague-Dawley rat at 2 mg/kg, ig by LC-MS/MS analysis; type: ADME, organism-based; details: in vivo, po
# [13] = Hepatotoxicity in male Sprague-Dawley rat assessed as change in alanine aminotransferase level in blood at 15 to 200 mg/kg, po administered every alternate days for 2 weeks measured on day 14; type: toxicity, organism-based; details: in vivo, 336 h, dose 15-200 mg/kg, time 14 day
# [14] = Cmax in Beagle dog at 2 mg/kg, ig by LC-MS/MS analysis; type: ADME, organism-based, Canis lupus familiaris; parameters: route […], dose 2 mg/kg; details: in vivo, po
# [15] = Tmax in Beagle dog at 2 mg/kg, ig by LC-MS/MS analysis; type: ADME, organism-based, Canis lupus familiaris; details: in vivo, po
# [16] = Genotoxicity in Salmonella typhimurium TA98 at 62.5 to 1000 ug incubated for 48 to 50 hrs in absence of S9 fraction by Ames test; type: toxicity, Salmonella enterica subsp. enterica serovar Typhimurium; details: in vivo; dose 62.5-1000 µg, time 48-50 hrs
# Homo sapiens [17] = species on record: Homo sapiens; experiment: Selectivity index, ratio of IC50 for KDM6B (unknown origin) in presence of peptide substrate incubated for 30 mins by alpha screen assay to IC50 for PHD2 (unknown origin) by O-phenyl enediamine(OPD) based fluorescence assay
# [18] = Acute toxicity in Sprague-Dawley rat assessed as change in ratio of heart to body weight at 15 to 200 mg/kg, po administered every alternate days for 2 weeks measured on day 14; type: organism-based; details: in vivo, 336 h, dose 15-200 mg/kg, time 14 day
# [19] = AUC (0 to t) in Sprague-Dawley rat at 1 mg/kg, iv by LC-MS/MS analysis; type: ADME, organism-based; parameters: dose 1 mg/kg; details: in vivo
# [20] = Hepatotoxicity in male Sprague-Dawley rat assessed as change in aspartate aminotransferase level in blood at 200 mg/kg, po administered every alternate days for 2 weeks measured on day 14; type: toxicity, organism-based; details: in vivo, 336 h, time 14 day
# HUVEC = experiment: Cytotoxicity against human HUVEC cells assessed as reduction in cell viability at 10 to 100 uM incubated for 72 hrs by MTT assay; type: cell-based; details: dose 10-100 µM
# [21] = AUC (0 to infinity) in Sprague-Dawley rat at 1 mg/kg, iv by LC-MS/MS analysis; type: ADME, organism-based; parameters: time infinity, route intravenous, dose 1 mg/kg; details: in vivo
# [22] = Acute toxicity in Sprague-Dawley rat assessed as effect on food intake at 15 to 200 mg/kg, po administered every alternate day for 14 day; type: organism-based; details: in vivo, 336 h, dose 15-200 mg/kg
# [23] = AUC (0 to t) in Sprague-Dawley rat at 2 mg/kg, ig by LC-MS/MS analysis; type: ADME, organism-based; parameters: dose 2 mg/kg; details: in vivo, po
# [24] = Apparent volume of distribution in Sprague-Dawley rat at 1 mg/kg, iv by LC-MS/MS analysis; type: ADME, organism-based; details: in vivo, read-out: Vz
# [25] = Genotoxicity in Salmonella typhimurium TA100 at 62.5 to 1000 ug incubated for 48 to 50 hrs in presence of S9 fraction by Ames test; type: toxicity, subcellular, Salmonella enterica subsp. enterica serovar Typhimurium; details: dose 62.5-1000 µg, time 48-50 hrs
# [26] = Half-life in Sprague-Dawley rat at 2 mg/kg, ig by LC-MS/MS analysis; type: ADME, organism-based; details: in vivo, po
# Mus musculus [27] = experiment: Induction of erythropoiesis in po dosed C57BL/6 mouse assessed as increase in red blood cell count administered thrice for 3 days measured 4 hrs post last dose; type: functional, organism-based; details: dose mg/kg 5-50, time 72.0 hrs
# Mus musculus [28] = experiment: In vivo inhibition of PHD2 in po dosed C57BL/6 mouse assessed as upregulation of EPO plasma level administered 4 times for 3 days by ELISA; type: functional, organism-based; details: dose mg/kg 5-50, time 3.0 day
# [29] = AUC (0 to infinity) in Beagle dog at 0.5 mg/kg, iv by LC-MS/MS analysis; type: ADME, organism-based, Canis lupus familiaris; parameters: time infinity, route intravenous, dose 0.5 mg/kg; details: in vivo
# [30] = Oral bioavailability in Sprague-Dawley rat at 2 mg/kg by LC-MS/MS analysis; type: ADME, organism-based; details: in vivo
# [31] = Acute toxicity in Sprague-Dawley rat assessed as change in ratio of thymus to body weight at 15 to 200 mg/kg, po administered every alternate days for 2 weeks measured on day 14; type: organism-based; details: in vivo, 336 h, dose 15-200 mg/kg, time 14 day
# [32] = MRT (0 to infinity) in Beagle dog at 2 mg/kg, ig by LC-MS/MS analysis; type: ADME, organism-based, Canis lupus familiaris; details: in vivo, po
# [33] = Nephrotoxicity in male Sprague-Dawley rat assessed as effect on total protein level in blood at 15 to 200 mg/kg, iv or po administered every alternate days for 2 weeks measured on day 14; type: toxicity, organism-based; details: in vivo, 336 h, dose 15-200 mg/kg, time 14 day
# L02 = experiment: Cytotoxicity against human L02 cells assessed as reduction in cell viability at 10 to 100 uM incubated for 72 hrs by MTT assay; type: cell-based; details: l02, 72 h, dose 10-100 µM
structure (smiles),measurement,setting,value
O=C(O)CNC(=O)c1ncc(C#CCOc2ccc(Cl)cc2)cc1O [DDO-3055],Ratio IC50,Homo sapiens [1],2.6
same,pIC50,Cytochrome P450 3A4,< 4.52
same,half-life,[2],2.91 h
same,bioavailability,[3],54%
same,Activity,[4],Toxic
same,MRT inf,[5],3.44 h
same,Cmax,[6],1030 ng/mL
same,Activity,[7],Non-Toxic
same,Activity,[8],Non-Toxic
same,fold change (FC),Egl nine homolog 1,7
same,Vd,[9],3.34 L/kg
same,Activity,[10],Non-Toxic
same,CLH,[11],< 14.4 mL/day/kg
same,Activity,Hep 3B2,Non-Toxic
same,Vz,[12],3.409 L/kg
same,Activity,[13],Non-Toxic
same,Cmax,[14],735 ng/mL
same,Tmax,[15],0.67 h
same,Activity,[16],Non-Toxic
same,Ratio IC50,Homo sapiens [17],> 156
same,Activity,[18],Non-Toxic
same,AUC(0-t),[19],4710 ng·h/mL
same,Activity,[20],Toxic
same,Activity,HUVEC,Non-Toxic
same,AUC(0-inf),[21],4860 ng·h/mL
same,Activity,[22],Non-Toxic
same,AUC(0-t),[23],4800 ng·h/mL
same,Vd,[24],2.52 L/kg
same,Activity,[25],Non-Toxic
same,half-life,[26],6.44 h
same,Activity,Mus musculus [27],Dose-dependent effect
same,inhibition,Mus musculus [28],Dose-dependent effect
same,AUC(0-inf),[29],636 ng·h/mL
same,bioavailability,[30],55.7%
same,Activity,[31],Non-Toxic
same,MRT inf,[32],4.69 h
same,Activity,[33],Non-Toxic
same,Activity,L02,Non-Toxic
